SMILES strings stand for the structures.

The values below come from patent publication US8344008B2 (Janssen Pharmaceutica NV, priority 2007, dated 2013).

This assay concerns the target T1, recombinant human LTA4 hydrolase (rhLTA4H) (Homo sapiens, UniProt P09960).
T1 construct: made in house; host or cells: Spodoptera frugiperda (Sf-9) cells, baculovirus (pFastBac1)
T1 sequence (P09960 1-611): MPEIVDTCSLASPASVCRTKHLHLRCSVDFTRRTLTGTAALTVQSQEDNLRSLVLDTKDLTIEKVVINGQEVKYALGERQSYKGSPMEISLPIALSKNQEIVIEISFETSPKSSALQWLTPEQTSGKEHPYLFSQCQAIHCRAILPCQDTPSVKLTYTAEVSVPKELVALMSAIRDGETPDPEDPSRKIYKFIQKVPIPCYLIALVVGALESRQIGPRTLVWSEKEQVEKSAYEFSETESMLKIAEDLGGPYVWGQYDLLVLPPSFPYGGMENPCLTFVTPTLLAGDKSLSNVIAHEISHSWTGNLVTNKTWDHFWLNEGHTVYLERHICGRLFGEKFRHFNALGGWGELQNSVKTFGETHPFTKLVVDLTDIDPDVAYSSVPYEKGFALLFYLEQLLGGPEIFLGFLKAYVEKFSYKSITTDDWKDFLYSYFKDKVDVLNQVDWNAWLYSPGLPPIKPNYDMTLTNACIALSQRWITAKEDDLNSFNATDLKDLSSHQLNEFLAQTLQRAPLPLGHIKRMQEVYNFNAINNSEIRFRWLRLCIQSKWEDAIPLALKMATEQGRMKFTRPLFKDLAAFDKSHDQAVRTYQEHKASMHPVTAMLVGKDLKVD
In words: Recombinant Human LTA4 Hydrolase Assay for LTA4 Hydrolase Inhibitor Activity. The class given is biochemical. As to conditions: average of results obtained; LTB4 quantified by enzyme-linked immunoassay. A digest of the protocol: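 LTB4 formation, quantified by EIA after 10 min at rt, was the read-out once 9 ng LTA4 (free acid) was added to recombinant human enzyme (36 ng, Sf-9 expressed) that had sat 10 min with compound. Buffer: 0.1 M potassium phosphate pH 7.4 with fatty-acid-free BSA; IC50 by 4-parameter fit.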

On to `CC(=O)NC1[C@H]2CN(Cc3ccc(Oc4nc5ccccc5s4)cc3)C[C@@H]12` (stereo partly drawn) [Example 93, (R,S)—N-{3-[4-(Benzothiazol-2-yloxy)-benzyl]-3-aza-bicyclo[3.1.0]hex-6-yl}-acetamide], for which the inhibition constant (Ki) came to 34 nM.

Consider `CS(=O)(=O)N1C2CCC1CN(Cc1ccc(Oc3nc4ccccc4s3)cc1)C2` [Example 57, meso-2-[4-(8-Methanesulfonyl-3,8-diaza-bicyclo[3.2.1]oct-3-ylmethyl)-phenoxy]-benzothiazole], for which the Ki was determined as 173 nM. The value for `CC(C)(O)C(=O)N1C[C@@H]2C[C@H]1CN2Cc1ccc(Oc2nc3ccccc3s2)cc1` [Example 12, (S,S)-1-{5-[4-(Benzothiazol-2-yloxy)-benzyl]-2,5-diaza-bicyclo[2.2.1]hept-2-yl}-2-hydroxy-2-methyl-propan-1-one] was 31 nM; that for `CC(=O)N1CC2CN(CCOc3ccc(Oc4nc5ccccc5s4)cc3)CC2C1` (centres unmarked) [Example 94, 1-(5-{2-[4-(Benzothiazol-2-yloxy)-phenoxy]-ethyl}-hexahydro-pyrrolo[3,4-c]pyrrol-2-yl)-ethanone] was 12 nM.

Turning to `NCC(=O)N[C@H]1C[C@H]2CC[C@@H](C1)N2Cc1ccc(Oc2nc3ccccc3s2)cc1` [Example 56, meso-endo-2-Amino-N-{8-[4-(benzothiazol-2-yloxy)-benzyl]-8-aza-bicyclo[3.2.1]oct-3-yl}-acetamide], the Ki came to 30 nM. Next, `CS(=O)(=O)N1C[C@@H]2C[C@H]1CN2CCc1ccc(Oc2nc3cccc(F)c3s2)cc1` [Example 232, (S,S)-7-Fluoro-2-{4-[2-(5-methanesulfonyl-2,5-diaza-bicyclo[2.2.1]hept-2-yl)-ethyl]-phenoxy}-benzothiazole]: 72 nM. Next, `NC(=O)N1C2CCC1CN(Cc1ccc(Oc3nc4ccccc4s3)cc1)C2` [Example 59, meso-3-[4-(Benzothiazol-2-yloxy)-benzyl]-3,8-diaza-bicyclo[3.2.1]octane-8-carboxylic acid amide]: 174 nM. Turning to `O=C(CO)N1C[C@@H]2C[C@H]1CN2Cc1ccc(Oc2nc3ccccc3s2)cc1F` [Example 78, (S,S)-1-{5-[4-(Benzothiazol-2-yloxy)-2-fluoro-benzyl]-2,5-diaza-bicyclo[2.2.1]hept-2-yl}-2-hydroxy-ethanone], the Ki was determined as 39 nM. The value for `CC(=O)N[C@H]1C[C@H]2CC[C@@H](C1)N2Cc1ccc(Oc2nc3c(C)cccc3s2)cc1` [Example 72, meso-endo-N-{8-[4-(4-Methyl-benzothiazol-2-yloxy)-benzyl]-8-aza-bicyclo[3.2.1]oct-3-yl}-acetamide] was 98 nM; that for `NCC(=O)N1CCC2CN(Cc3ccc(Oc4nc5ccccc5s4)cc3)CC21` (centres unmarked) [Example 95, 2-Amino-1-{5-[4-(benzothiazol-2-yloxy)-benzyl]-hexahydro-pyrrolo[3,4-b]pyrrol-1-yl}-ethanone] was 36 nM. For `CS(=O)(=O)N1[C@@H]2CC[C@H]1C[C@@H](NCCOc1ccc(Oc3nc4cc(F)ccc4s3)cc1)C2` [Example 233, meso-endo-{2-[4-(5-Fluoro-benzothiazol-2-yloxy)-phenoxy]-ethyl}-(8-methanesulfonyl-8-aza-bicyclo[3.2.1]oct-3-yl)-amine], the Ki stood at 225 nM. The value for `O=C(CF)N1CC2CN(Cc3ccc(Oc4nc5ccccc5s4)cc3)CC2C1` (centres unmarked) [Example 112, 1-{5-[4-(Benzothiazol-2-yloxy)-benzyl]-hexahydro-pyrrolo[3,4-c]pyrrol-2-yl}-2-fluoro-ethanone] was 2 nM.

Turning to `NC(=O)N1CC2CCN(Cc3ccc(Oc4nc5ccccc5s4)cc3)CC2C1` (racemic) [Example 141, (±)-5-[4-(Benzothiazol-2-yloxy)-benzyl]-octahydro-pyrrolo[3,4-c]pyridine-2-carboxylic acid amide], the Ki amounted to 35 nM. Next, `CS(=O)(=O)N[C@H]1C[C@H]2CC[C@@H](C1)N2Cc1ccc(Oc2nc3cc(F)ccc3s2)cc1` [Example 208, meso-endo-N-{8-[4-(5-Fluoro-benzothiazol-2-yloxy)-benzyl]-8-aza-bicyclo[3.2.1]oct-3-yl}-methanesulfonamide]: 22 nM.
